The source of these data is paper PMC10449634, “A general method for the development of multicolor biosensors with large dynamic ranges” (Nature Chemical Biology, 2023).

For assay [1], the target named is HaloTag7 (HT7) E143R E147R L271E labeled with SiR, as the C-terminal part of ChemoG5 (construct for fluorescence spectroscopy). Description: FRET or BRET; intramolecular FRET of the purified eGFP–HT7 fusion (both partners on one chain), 200 nM protein labeled with 400 nM fluorophore–CA substrate, activity buffer (50 mM HEPES, 50 mM NaCl, pH 7.3) with 0.5 mg/ml BSA, 37 °C, plate reader.

Another assay has as its target T1, ChemoG1 (eGFP-HT7) (Rhodococcus sp. (in: high G+C Gram-positive bacteria), UniProt P0A3G3, L47V/S58T/D78G/Y87F/L88M/C128F/A155T/E160K/A167V/A172T/K175M/C176G/K195N/A224E/N227D/E257K/T264A/H272N/Y273L/P291S/A292T).
T1 construct: gene dhaA; eGFP fused directly to N terminus of HaloTag7; His10 removed with TEV protease; E. coli
The assay is described as follows: X-ray crystallography, […] Å. It counts as binding. Conditions: covalent; HaloTag labelling with chloroalkane; fluorophore at eGFP-HT7 interface.

The target in a further assay is T2, ATeam 1.03 (Bacillus subtilis, UniProt P37812).
T2 construct: gene atpC; epsilon subunit between mseCFP and Venus
Description: FRET sensor titration. It is filed as binding. Conditions: read-out: C50.

T2 sequence (P37812 whole entry): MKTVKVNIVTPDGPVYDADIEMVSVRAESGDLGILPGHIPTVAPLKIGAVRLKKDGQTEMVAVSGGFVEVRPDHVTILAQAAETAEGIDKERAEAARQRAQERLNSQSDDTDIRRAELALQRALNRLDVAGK

In turn, “eGFP A206K T225R, as the N-terminal part of ChemoG5 (construct for fluorescence spectroscopy) (from UniProt P42212 3-238) (domain or fragment)” returned an FRET efficiency in assay [1] of 95.8%.
`CN(C)c1ccc2c(-c3cc(C(=O)NCCOCCOCCCCCCCl)ccc3C(=O)[O-])c3ccc(=[N+](C)C)cc-3oc2c1` [TMR-CA]: the “X-ray crystallography, 1.8 Å” value at ChemoG1 (eGFP-HT7) is “X-ray structure of ChemoG1 labeled with the fluorophore tetramethylrhodamine”.
On to `Nc1ncnc2c1ncn2[C@@H]1O[C@H](COP(=O)(O)OP(=O)(O)OP(=O)(O)O)[C@@H](O)[C@H]1O` [ATP], for which, on ATeam 1.03, the EC50 was 1800 µM.
